Results on one compound are retold here after article PMC3745430, “Novel Multiplexed Assay for Identifying SH2 Domain Antagonists of STAT Family Proteins” (PLoS ONE, 2013).

One test has as its target T1, STAT1-SH2 (Homo sapiens, UniProt P42224).
T1 construct: made in house
T1 sequence (P42224 1-750): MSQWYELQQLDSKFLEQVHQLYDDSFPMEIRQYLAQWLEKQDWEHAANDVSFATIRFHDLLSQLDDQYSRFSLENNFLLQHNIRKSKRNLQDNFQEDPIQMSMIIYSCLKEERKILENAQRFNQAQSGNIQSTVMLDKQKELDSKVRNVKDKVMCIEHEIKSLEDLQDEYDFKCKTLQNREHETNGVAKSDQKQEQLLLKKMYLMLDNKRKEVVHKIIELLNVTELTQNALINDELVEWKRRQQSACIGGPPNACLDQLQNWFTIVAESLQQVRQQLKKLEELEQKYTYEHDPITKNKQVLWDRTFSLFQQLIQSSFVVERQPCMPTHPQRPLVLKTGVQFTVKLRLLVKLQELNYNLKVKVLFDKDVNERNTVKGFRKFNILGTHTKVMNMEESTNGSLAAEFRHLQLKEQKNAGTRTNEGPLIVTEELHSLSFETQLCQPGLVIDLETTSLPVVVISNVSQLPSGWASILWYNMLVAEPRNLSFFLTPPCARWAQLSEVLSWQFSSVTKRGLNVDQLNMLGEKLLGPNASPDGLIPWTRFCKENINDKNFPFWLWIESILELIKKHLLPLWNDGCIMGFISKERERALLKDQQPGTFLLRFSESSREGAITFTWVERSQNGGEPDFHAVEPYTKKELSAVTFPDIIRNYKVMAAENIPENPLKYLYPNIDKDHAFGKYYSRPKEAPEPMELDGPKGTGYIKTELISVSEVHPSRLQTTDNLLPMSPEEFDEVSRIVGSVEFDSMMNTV
Briefly: STAT1-SH2 binding AlphaScreen assay. Conditions: AlphaScreen assay (Figure S8A). The procedure:
Both AlphaLISA and AlphaScreen are bead-based nonradioactive binding assay systems for detecting biomolecular interactions in a microplate format. The binding of the biological partners brings the donor and acceptor beads into close proximity, and AlphaLISA produces a specific signal around 615 nm and AlphaScreen emits a broad signal between 520 and 620 nm. The assays were performed in a final reaction volume of 25 µL of the assay buffer, which contained 10 mM HEPES-NaOH (pH 7.4), 50 mM NaCl, 1 mM EDTA (pH 8.0), 0.1% (w/v) NP-40, and 10 ng/µL (w/v) BSA in a 96-well microplate at 25°C. […] Streptavidin-coated donor beads (0.25 µg/well) and anti-DIG AlphaLISA acceptor beads (0.25 µg/well) were added and incubated for 90 min before the signals were measured with EnVison Xcite (PerkinElmer Life Sciences). […] Streptavidin-coated donor beads (0.25 µg/well) and anti-FITC AlphaScreen acceptor beads (0.25 µg/well) were added and incubated for 90 min before the signals were measured with EnVison Xcite. […] Streptavidin-coated donor beads (0.50 µg/well), anti-DIG AlphaLISA (0.25 µg/well), and anti-FITC AlphaScreen acceptor beads (0.25 µg/well) were added and incubated for 90 min before the signals were measured with EnVison Xcite. […] The bound state was measured by incubating the labeled peptide and the protein without test compounds. […] The IC50 value was calculated by Graph pad prism 4.0. […]

The target in test [1] is T2, STAT3(136–705) (Homo sapiens, UniProt P40763).
T2 construct: amino acids 136 to 705 of human STAT3 and 136 to 703 of human STAT5b; 6×His-tag (N); made in house; host or cells: E. coli BL-21 Star (DE3) pLysS co-transformed with pBirAcm
As to the kind of experiment: Multiplexed Alpha assay, STAT3-SH2 binding (AlphaLISA). Conditions: multiplexed binding assay; mean and SEM, three independent experiments; read-out: IC50 STAT3-SH2 binding (STAT3). As for the experimental part:
(§1) Both AlphaLISA and AlphaScreen are bead-based nonradioactive binding assay systems for detecting biomolecular interactions in a microplate format. The binding of the biological partners brings the donor and acceptor beads into close proximity, and AlphaLISA produces a specific signal around 615 nm and AlphaScreen emits a broad signal between 520 and 620 nm. The assays were performed in a final reaction volume of 25 µL of the assay buffer, which contained 10 mM HEPES-NaOH (pH 7.4), 50 mM NaCl, 1 mM EDTA (pH 8.0), 0.1% (w/v) NP-40, and 10 ng/µL (w/v) BSA in a 96-well microplate at 25°C. The labeled phosphotyrosyl (pTyr, pY) peptide probes were DIG-GpYLPQTV and FITC-GpYLVLDKW for STAT3 and STAT5b, respectively. In the single assay for STAT3 binding, 100 nM STAT3(136–705) protein was incubated with a test compound dissolved in DMSO for 30 min, and 1.0 nM DIG-GpYLPQTV was added and the mixture was incubated for 90 min. Streptavidin-coated donor beads (0.25 µg/well) and anti-DIG AlphaLISA acceptor beads (0.25 µg/well) were added and incubated for 90 min before the signals were measured with EnVison Xcite (PerkinElmer Life Sciences). In the single assay for STAT5b binding, 20 nM STAT5b(136–703) was incubated with a test compound for 30 min, and 1.0 nM FITC-GpYLVLDKW was added and incubated for 90 min. Streptavidin-coated donor beads (0.25 µg/well) and anti-FITC AlphaScreen acceptor beads (0.25 µg/well) were added and incubated for 90 min before the signals were measured with EnVison Xcite. In the multiplexed assay, 100 nM STAT3(136–705) and 20 nM STAT5b(136–703) were incubated with a test compound for 30 min, and 1.0 nM DIG-GpYLPQTV and 1.0 nM FITC-GpYLVLDKW were added and incubated for 90 min. Streptavidin-coated donor beads (0.50 µg/well), anti-DIG AlphaLISA (0.25 µg/well), and anti-FITC AlphaScreen acceptor beads (0.25 µg/well) were added and incubated for 90 min before the signals were measured with EnVison Xcite. AlphaLISA and AlphaScreen signals for measuring STAT3- and STAT5b-SH2 binding, respectively, can be separately measured by using a dysprosium 572 nm and a europium 615 nm narrow bandwidth filter. In inhibitory assays, these signals for the bound state and the free state were represented as 0% and 100% inhibition, respectively. The bound state was measured by incubating the labeled peptide and the protein without test compounds. The free state was measured by incubating the same mixture with an additional 10 µM non-labeled peptide contained phosphorylated tyrosine, which competitively binds to its corresponding protein. The IC50 value was calculated by Graph pad prism 4.0. The mean and the standard error (SEM) of IC50 values were determined from three independent experiments. The Z’ value was calculated using the equation Z’ = 1–(3×SD_bound +3×SD_free)/(Signal_bound – Signal_free). STAT1 and Grb2 binding assays were performed as described in previous report. In the assays for selectivity of Compound 1, 100 pM biotinylated DIG or 100 pM biotinylated FITC was incubated with 10 µM or 30 µM Compound 1 for 30 min. Streptavidin-coated donor beads (0.25 µg/well) and anti-DIG AlphaLISA acceptor beads (0.25 µg/well) or anti-FITC AlphaScreen acceptor beads (0.25 µg/well) were added and incubated for 90 min before the signals were measured with EnVison Xcite.

Test [2] deals with STAT3 reporter HeLa stable cell line. Briefly: STAT3 luciferase reporter gene assay. The following applies: pretreatment before oncostatin M stimulation (Figure S10). It counts as cell-based. As for the experimental part: STAT3 reporter HeLa stable cell lines were incubated in a 96-well microplate for 24 hours. Cells were pretreated with test compounds for 1 hour, and 10 ng/ml (w/v) of oncostatin M were applied and incubated for 4 hours. Cells were washed with medium not supplemented with phenol red, and Steady-Glo® reagent (Promega) was applied. After 5 min incubation, the signals were detected by ARVO Light 1420 (PerkinElmer Life Sciences). The relative signal intensity was calculated in each well as the ratio for the mean signal of vehicle.
In general terms: In a reporter assay the amount or activity of a reporter protein is the signal.

The target of test [3] is T2, STAT3(136–705). Briefly: Single STAT3-SH2 binding assay (AlphaLISA). The following applies: non-multiplexed single assay. As for the experimental part: as §1
Background: In Alpha technology, singlet oxygen from a donor bead excites a nearby acceptor bead.

T2 sequence (P40763 136-705): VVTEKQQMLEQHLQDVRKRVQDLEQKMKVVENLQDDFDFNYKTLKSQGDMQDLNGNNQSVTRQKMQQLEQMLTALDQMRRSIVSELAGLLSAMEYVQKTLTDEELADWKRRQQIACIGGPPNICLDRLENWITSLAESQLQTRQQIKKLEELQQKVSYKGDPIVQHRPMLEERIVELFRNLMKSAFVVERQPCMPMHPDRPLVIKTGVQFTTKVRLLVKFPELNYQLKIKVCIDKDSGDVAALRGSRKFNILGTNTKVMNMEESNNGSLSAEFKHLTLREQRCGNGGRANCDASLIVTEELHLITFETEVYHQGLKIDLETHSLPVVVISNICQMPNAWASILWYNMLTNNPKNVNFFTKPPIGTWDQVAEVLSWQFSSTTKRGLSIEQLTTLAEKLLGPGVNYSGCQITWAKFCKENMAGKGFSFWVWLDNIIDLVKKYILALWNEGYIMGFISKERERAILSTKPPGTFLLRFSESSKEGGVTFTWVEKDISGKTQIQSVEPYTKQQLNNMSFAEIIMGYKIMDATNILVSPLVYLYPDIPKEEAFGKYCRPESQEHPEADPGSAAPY

On to `O=C1C=CC(=NC2=C(Cl)C(=O)c3ccccc3C2=O)C=C1` [Compound 1], for which, on STAT1-SH2, the “Inhibition of STAT1-SH2 binding” value is “inhibited neither”. Besides, the IC50 (usually the concentration needed to halve the response being measured) is 5 ± 0.073 µM on STAT3(136–705) [1] and 3.8 µM on STAT3(136–705) [3]. In addition, in test [2], the “Effect on STAT3 transcriptional activity” value is listed as “reduced the STAT3 transcriptional activity in a dose-dependent manner”.
